Test results from patent US20250092383A1, “COMPOUNDS AND METHODS FOR FBXO22-MEDIATED PROTEIN DEGRADATION” (Northwestern University, priority 2023, published 2025).

Key:
FBXO22 = target: T1, FBXO22 (Homo sapiens, UniProt Q8NEZ5); assay: Competitive cysteine-directed activity-based protein profiling (ABPP); assay type: binding
T1 construct: expressed in transfected cells; host or cells: HEK293T
T1 sequence (Q8NEZ5 1-403): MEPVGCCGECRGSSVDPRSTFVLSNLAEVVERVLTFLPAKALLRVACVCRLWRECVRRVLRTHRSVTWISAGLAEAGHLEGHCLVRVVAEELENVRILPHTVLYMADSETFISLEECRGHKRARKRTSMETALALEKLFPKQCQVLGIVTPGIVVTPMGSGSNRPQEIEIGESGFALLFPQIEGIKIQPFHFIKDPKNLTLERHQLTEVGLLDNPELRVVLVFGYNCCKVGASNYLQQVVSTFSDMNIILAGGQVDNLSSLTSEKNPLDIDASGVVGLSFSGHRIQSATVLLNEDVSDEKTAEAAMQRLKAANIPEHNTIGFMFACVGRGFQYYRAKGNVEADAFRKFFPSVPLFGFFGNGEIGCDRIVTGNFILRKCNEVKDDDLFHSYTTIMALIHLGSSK
Source text: (§1) FIGS. 3A-3H show FBXO22 C227 and C228 are involved in 22-SLF-mediated degradation of FKBP12. […] Among 5,650 quantified IA-DTB-modified peptides, four cysteines were identified on FBXO22 (C83, C117, C228, and C365). […] Data are presented as the mean values (n=2 biological independent samples for DMSO treatment; n=3 biological independent samples for 22-SLF Treatment). […] The bag graph represents quantification of the FLAG-FKBP12/HSP90 protein content. Data are presented as mean values (n=2 biological independent samples). […] The bar graph represents quantification of the FLAG-FKBP12/HSP90 protein content. Data are presented as the mean values (n=2 biological independent samples).
To identify the cysteine residue(s) in FBXO22 engaged with 22-SLF, HA-FBXO22-expressing HEK293T cells were treated with either DMSO or 22-SLF (2 μM, 2 hours). Using competitive cysteine-directed activity-based protein profiling (ABPP), a chemical proteomics for the measurement of target engagement, the degree of blockade of iodoacetamide-desthiobiotin (IA-DTB)-modified cysteines on FBXO22 was quantified. From a pool of 5,650 quantified IA-DTB-modified peptides, four cysteines on FBXO22 (C83, C117, C228, and C365) (FIG. 3a) were identified, with approximately 20% of FBXO22 C228 being blocked by 22-SLF treatment (FIG. 3b), indicating the potential interaction with this cysteine by 22-SLF. […]

FKBP12 (mouse FBXO22) [1] = target: T2, FKBP12 (mouse FBXO22) (UniProt P62942+Q78JE5); assay: FKBP12 degradation in HEK293T cells expressing mouse FBXO22; assay type: cell-based; conditions: HEK293T cells expressing mouse FBXO22 wildtype
T2 construct: expressed in transfected cells; host or cells: HEK293T
Source text: as §1
(§2) Intriguingly, the peptide sequence containing the two consecutive cysteines (C227 and C228) is identical between human and mouse (FIG. 3f). To explore whether mouse FBXO22 can facilitate 22-SLF-induced FKBP12 degradation and if the conserved cysteines (C226 and C227 in mouse FBXO22) are pivotal, HEK293T cells expressing mouse FBXO22 wildtype, C226A, C227A, and C226AC227A, were generated.

FKBP12 (mouse FBXO22) [2] = target: T3, FKBP12 (mouse FBXO22) (UniProt P62942+Q78JE5, C226A/C227A); assay: as above; assay type: cell-based; conditions: HEK293T cells
T3 construct: expressed in transfected cells; host or cells: HEK293T
Source text: as §1, §2

FKBP12 (mouse FBXO22) [3] = assay: as above; assay type: cell-based; conditions: HEK293T cells
Source text: as §1, §2

FKBP12 and FBXO22 [4] = target: T4, FKBP12 and FBXO22 (Homo sapiens, UniProt P62942+Q8NEZ5); assay: Coimmunoprecipitation of HA-FBXO22 with FLAG-FKBP12 (ternary complex); assay type: cell-based; conditions: HEK293T cells, with MG132
T4 construct: expressed in transfected cells; host or cells: HEK293T
Source text: (§3) FIGS. 4A-4C show 22-SLF induces the formation of a ternary complex involving 22-SLF, FKBP12 and FBXO22. […] The bar graph represents quantification of the immunoprecipitated HA-FBXO22 protein content compared to the HA-FBXO22 protein in whole cell lysates (WCL). Data are presented as the mean values (n=2 biological independent samples). […] Data are presented as the mean values (n=2 biological independent samples).
(§4) The formation of ternary complex by degraders with their target protein and E3 ligase drives the subsequent target degradation.

FKBP12 and FBXO22 [5] = target: T5, FKBP12 and FBXO22 (Homo sapiens, UniProt P62942+Q8NEZ5, C227A/C228A); assay: as above; assay type: cell-based; conditions: HEK293T cells, with MG132
T5 construct: expressed in transfected cells; host or cells: HEK293T
Source text: as §3, §4

FKBP12 and FBXO22 [6] = assay: as above; assay type: cell-based, human; conditions: HEK293T cells, with MG132
Source text: as §3, §4

[7] = target: T6, FKBP12 interactome (SKP1-CUL1-RBX1 E3 complex) (Homo sapiens, UniProt P62942+Q8NEZ5); assay: FKBP12-directed enrichment proteomic analysis; assay type: cell-based; conditions: 22-SLF (2 μM) and MG132 (5 μM)
T6 construct: expressed in transfected cells; host or cells: HEK293T (FLAG-FKBP12 and HA-FBXO22 expressed; SKP1, CUL1 and RBX1 are the cells' own)
Source text: as §3
(§5) To comprehensively assess the impact of 22-SLF on the FKBP12 interactome landscape, an enrichment proteomic approach was employed to identify proteins co-immunoprecipitating with FLAG-FKBP12 from HEK293T cells treated with 22-SLF. […] Furthermore, another enrichment proteomic study was conducted comparing FKBP12 interactome landscape in HEK293T cells expressing FBXO22 wildtype and C227AC228A double mutant. […] Collectively, these findings indicate that 22-SLF effectively drives the formation of a ternary complex involving 22-SLF, FBXO22 and FKBP12 by engaging C227/228 in FBXO22, thereby facilitating the subsequent degradation of FKBP12.

[8] = target: T7, FKBP12 interactome (SKP1-CUL1-RBX1 E3 complex) (Homo sapiens, UniProt P62942+Q8NEZ5, C227A/C228A); assay: FKBP12-directed enrichment proteomic analysis; assay type: cell-based; conditions: 22-SLF (2 μM) and MG132 (5 μM)
T7 construct: expressed in transfected cells; host or cells: HEK293T (FLAG-FKBP12 and HA-FBXO22 expressed; SKP1, CUL1 and RBX1 are the cells' own)
Source text: as §3, §5

T6 sequence (P62942 2-108, one chain of several): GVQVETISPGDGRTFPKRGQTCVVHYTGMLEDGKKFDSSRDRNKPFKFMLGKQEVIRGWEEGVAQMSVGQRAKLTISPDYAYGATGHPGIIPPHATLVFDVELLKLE
T6 sequence (P63208 whole entry partner, one chain of several): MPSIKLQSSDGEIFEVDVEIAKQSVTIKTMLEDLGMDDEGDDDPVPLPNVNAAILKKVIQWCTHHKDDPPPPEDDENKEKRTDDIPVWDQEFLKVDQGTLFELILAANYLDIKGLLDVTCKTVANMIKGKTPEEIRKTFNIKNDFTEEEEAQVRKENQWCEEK
T4 sequence (P62942 2-108, one chain of several): as the sequence (P62942 2-108, one chain of several) above
T4 sequence (P63208 whole entry partner, one chain of several): as the sequence (P63208 whole entry partner, one chain of several) above
T5 sequence (P62942 2-108): as the sequence (P62942 2-108, one chain of several) above
T5 sequence (Q8NEZ5 whole entry C227A/C228A): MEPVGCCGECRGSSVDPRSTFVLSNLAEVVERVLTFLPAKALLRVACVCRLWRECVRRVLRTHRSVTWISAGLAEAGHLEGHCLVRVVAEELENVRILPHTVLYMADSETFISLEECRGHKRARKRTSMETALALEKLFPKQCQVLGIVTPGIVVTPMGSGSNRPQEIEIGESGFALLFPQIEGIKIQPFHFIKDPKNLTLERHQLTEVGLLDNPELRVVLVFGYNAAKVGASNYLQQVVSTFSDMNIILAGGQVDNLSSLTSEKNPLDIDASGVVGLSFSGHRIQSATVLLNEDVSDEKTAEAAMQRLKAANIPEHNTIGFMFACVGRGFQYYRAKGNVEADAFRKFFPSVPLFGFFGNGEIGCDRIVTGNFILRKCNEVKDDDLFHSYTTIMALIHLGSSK
T5 sequence (P63208 whole entry partner): as the sequence (P63208 whole entry partner, one chain of several) above
T3 sequence (P62942 2-108): as the sequence (P62942 2-108, one chain of several) above
T3 sequence (Q78JE5 whole entry C226A/C227A): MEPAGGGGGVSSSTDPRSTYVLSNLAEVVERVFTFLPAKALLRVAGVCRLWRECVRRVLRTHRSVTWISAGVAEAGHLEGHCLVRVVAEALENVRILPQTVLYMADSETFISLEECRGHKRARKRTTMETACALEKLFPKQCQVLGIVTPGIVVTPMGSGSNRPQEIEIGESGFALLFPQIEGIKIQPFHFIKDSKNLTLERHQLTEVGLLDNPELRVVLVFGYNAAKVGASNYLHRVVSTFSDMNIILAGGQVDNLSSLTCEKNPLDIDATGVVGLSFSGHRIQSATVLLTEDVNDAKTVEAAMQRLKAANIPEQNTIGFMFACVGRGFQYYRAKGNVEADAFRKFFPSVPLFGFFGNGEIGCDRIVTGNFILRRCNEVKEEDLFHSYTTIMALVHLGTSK
T2 sequence (P62942 2-108): as the sequence (P62942 2-108, one chain of several) above
T2 sequence (Q78JE5 whole entry): as the sequence (Q78JE5 whole entry C226A/C227A) above, with A226C, A227C counted along it
T2 sequence (P63208 whole entry partner): as the sequence (P63208 whole entry partner, one chain of several) above
T7 sequence (P62942 2-108): as the sequence (P62942 2-108, one chain of several) above
T7 sequence (Q8NEZ5 whole entry C227A/C228A): as the sequence (Q8NEZ5 whole entry C227A/C228A) above
T7 sequence (P63208 whole entry partner): as the sequence (P63208 whole entry partner, one chain of several) above

CCC(C)(C)C(=O)C(=O)N1CCCC[C@H]1C(=O)O[C@H](CCc1ccc(OC)c(OC)c1)c1cccc(OCC(=O)NCCCOCCOCCOCCCN(C(=O)CCl)C(C(=O)NCc2ccccc2)c2nc3ccccc3s2)c1 (some centres unmarked) [22-SLF]
Blockade of IA-DTB-modified FBXO22 C228 (FBXO22; 2 μM, 2 hours, HA-FBXO22-expressing HEK293T cells): approximately 20%
Engagement of FBXO22 C227 (FBXO22; FIG. 3b): approximately 20%
FKBP12 degradation, mouse FBXO22 wildtype (FKBP12 (mouse FBXO22) [1]): induced FBKP12 degradation
FKBP12 degradation, mouse FBXO22 double mutant C226AC227A (FKBP12 (mouse FBXO22) [2]): fully blocked the degradation
FKBP12 degradation, mouse FBXO22 single mutants C226A and C227A (FKBP12 (mouse FBXO22) [3]): partially impeded degradation
Ternary complex formation, FBXO22 wild type (FKBP12 and FBXO22 [4]): HA-FBXO22 co-immunoprecipitated with FLAG-FKBP12
Ternary complex assembly, FBXO22 C227AC228A double mutant (FKBP12 and FBXO22 [5]): nearly completely abolished
Ternary complex assembly, FBXO22 C227A or C228A single mutant (FKBP12 and FBXO22 [6]): partially hindered
FBXO22 complex enrichment, FBXO22 wildtype-expressing cells [7]: enrichment of the FBXO22 complex
Proteins co-immunoprecipitating with FLAG-FKBP12 ([7]; HEK293T cells): FBXO22 itself, SKP1, CUL1, and NEDD8, as proteins recruited by 22-SLF
FBXO22 complex enrichment, FBXO22 C227AC228A-expressing cells [8]: enrichment was absent
